The record followed here is paper PMC12249541, “Novel Derivatives of 3-Amino-4-hydroxy-benzenesulfonamide: Synthesis, Binding to Carbonic Anhydrases, and Activity in Cancer Cell 2D and 3D Cultures” (International Journal of Molecular Sciences, 2025).

The test system of series [1] is human foreskin fibroblasts (HFs). As to the kind of experiment: MTT cell viability assay, fibroblasts. The conditions noted are these: Fibroblast, 72 h, read-out: EC50, HF. The class given is cell-based. Background: Tetrazolium dyes change colour on reduction, which living cells bring about.
The subject of series [2] is triple-negative breast cancer MDA-MB-231. In words: MTT cell viability assay, MDA-MB-231. It is filed as cell-based, human. As to conditions: read-out: EC50, MDA-MB-231.
For series [3], the system named is U-87, MDA-MB-231, PPC-1 cell lines. In words: MTT cell viability assay, statements over several cell lines. It is filed as cell-based, human. The conditions noted are these: for EC50 / viability at 100 µM: Homo sapiens; for EC50: read-out: EC50 values, range over different cell lines.
Series [4] deals with human glioblastoma U-87. In words: MTT cell viability assay, U-87. The class given is cell-based. As to conditions: 72 h, read-out: EC50, U-87.
The subject of series [5] is prostate adenocarcinoma PPC-1. As to the kind of experiment: MTT cell viability assay, PPC-1. The class given is cell-based. As to conditions: Homo sapiens, read-out: EC50, PPC-1.
The target of series [6] is CAI (Homo sapiens, UniProt P00915). In words: Fluorescent thermal shift assay (FTSA), CAI. The class given is binding.
Series [7] has as its target CAIX (Homo sapiens, UniProt Q16790). In words: Fluorescent thermal shift assay (FTSA), CAIX. As to conditions: compared with compound 10. It is filed as binding.
For series [8], the target named is CAVA (Homo sapiens, UniProt P35218). As to the kind of experiment: Fluorescent thermal shift assay (FTSA), CAVA. The class given is binding. The conditions noted are these: compared with compound 10.
The test system of series [9] is MDA-MB-231 spheroids. In words: 3D culture (cancer spheroids), MDA-MB-231. The class given is cell-based, human. As to conditions: 10 µM.
The subject of series [10] is recombinant human carbonic anhydrases (CAs). In words: FTSA, statements over several CA isoenzymes. The class given is binding. As to conditions: up to 200 µM.
For series [11], the system named is PPC-1 spheroids. In words: 3D culture (cancer spheroids), PPC-1. As to conditions: 10 µM. The class given is cell-based, human.
Series [12] deals with U-87 spheroids. In words: 3D culture (cancer spheroids), U-87. The class given is cell-based, human. The conditions noted are these: 10 µM.
Series [13] has as its target CAII (Homo sapiens, UniProt P00918). As to the kind of experiment: Fluorescent thermal shift assay (FTSA), CAII. The class given is binding. As to conditions: compared with compound 24.
Where [14] appears, read: 100 μM, 72 h, MTT, at least one of the tested cell lines.
The mark [15] stands for this setting: Homo sapiens, MDA-MB-231, MTT, 72 h.
[16] abbreviates: MTT at the end of the experiment.
Setting [17] is: cancer cells and fibroblasts 1:1, vs control.

“Also recorded” adds a separate entry of the source. Like-named read-outs stand apart in the source and are kept apart here. Bounds are passed on as bounds.

CAI, sequence (P00915 whole entry): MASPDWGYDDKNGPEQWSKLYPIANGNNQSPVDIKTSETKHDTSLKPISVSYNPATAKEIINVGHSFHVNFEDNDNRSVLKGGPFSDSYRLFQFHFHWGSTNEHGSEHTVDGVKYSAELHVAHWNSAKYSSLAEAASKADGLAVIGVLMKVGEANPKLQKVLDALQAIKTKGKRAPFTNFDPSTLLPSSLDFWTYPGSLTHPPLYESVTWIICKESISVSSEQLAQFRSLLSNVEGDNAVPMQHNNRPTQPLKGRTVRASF
CAVA, sequence (P35218 39-305): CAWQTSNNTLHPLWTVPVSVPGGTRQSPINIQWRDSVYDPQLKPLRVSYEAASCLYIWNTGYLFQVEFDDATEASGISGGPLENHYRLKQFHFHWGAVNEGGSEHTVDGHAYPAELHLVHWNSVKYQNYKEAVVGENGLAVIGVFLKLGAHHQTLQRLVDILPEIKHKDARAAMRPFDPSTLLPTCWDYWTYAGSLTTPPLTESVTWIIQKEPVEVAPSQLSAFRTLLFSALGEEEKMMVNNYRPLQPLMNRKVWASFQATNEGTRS

For the compound `NS(=O)(=O)c1ccc(O)c(N=Cc2ccc([N+](=O)[O-])s2)c1` [Compound 9, 4-Hydroxy-3-(((5-nitrothiophen-2-yl)methylene)amino)benzenesulfonamide], the EC50 in [1] was 13.8 ± 5.2 µM; in series [2] (Homo sapiens, MDA-MB-231, 72 h), 14 ± 3.2 µM; in series [3] (72 h) it was 13 to 23.3 µM; in series [4], 23.3 ± 2.9 µM; in [5] (PPC-1, 72 h), 13 ± 3.5 µM. In series [3] (setting [14]), this compound gave a viability at 100 µM of under 20%.
Regarding `NS(=O)(=O)c1ccc(O)c(NCC(=O)c2ccc(Cl)cc2)c1` [Compound 12, 4-Hydroxy-3-((2-(4-chlorophenyl)-2-oxoethyl)amino)benzenesulfonamide], the concentration for a half-maximal effect (EC50) was 166 ± 7 µM in [1] (MTT); 148 ± 22.5 µM in series [2] (setting [15]); 137 ± 15.4 µM in series [4] (MTT); 137 ± 15.5 µM in [5] (PPC-1, MTT, 72 h). This compound displayed a viability at 100 µM in [3] (setting [14]) of under 20%. For the same compound, the “melting temperature (Tm) of CAI with increasing compound concentration” value in [6] (0–200 µM of compound, FTSA) is 56 to 66 °C.
Regarding `NS(=O)(=O)c1ccc(O)c(NCC(=O)c2cccc3ccccc23)c1` [Compound 14, 4-Hydroxy-3-((2-(naphthalen-1-yl)-2-oxoethyl)amino)benzenesulfonamide], in [7], the “fold increase in affinity, CAIX” value is recorded as 4.5 ×. The “fold increase in affinity, CAVA” value in series [8] is reported as 9 ×. Moreover, the cell viability entry in series [3] (setting [14]) is reported as “did not show high cytotoxicity”. In addition, in [6] (compared with compound 10), the “fold increase in affinity, CAI” value turned out to be 60 ×.
For `NS(=O)(=O)c1ccc(O)c(NCC(=NN=C(CNc2cc(S(N)(=O)=O)ccc2O)c2ccccc2)c2ccccc2)c1` [Compound 18, 3,3′-((Hydrazine-1,2-diylidenebis(2-phenylethan-1-yl-2-ylidene))bis(azanediyl))bis(4-hydroxybenzenesulfonamide)], the concentration giving a half-maximal response (EC50) in series [1] (MTT) is 134 ± 11.1 µM; in series [2] (setting [15]) it was 127 ± 20.8 µM; in series [4] (MTT) it was 105 ± 6 µM; in [5] (PPC-1, MTT, 72 h) it was 108 ± 17.7 µM. In [3] (setting [14]), this compound yielded a viability at 100 µM of under 20%.
For the compound `CCOc1ccc(S(=O)(=O)N(CC)CC)cc1-n1cc(-c2ccccc2)n(CC)c1=O` [Compound 21, 4-Ethoxy-N,N-diethyl-3-(3-ethyl-2-oxo-4-phenyl-2,3-dihydro-1H-imidazol-1-yl)benzenesulfonamide], in series [9] (setting [16]), the “viability of cells in spheroids, MDA-MB-231” value was “reduced the viability”. Besides, in series [9] (setting [17]), the “spheroid growth / size, MDA-MB-231” value was “reduced the growth”. Besides, in series [10], the “binding to CA isoenzymes (in words)” value is recorded as “completely lost its ability to bind; also recorded: abolished the ability; also recorded: did not bind any of the tested CAs”. Besides, the half-maximal effective concentration (EC50) in series [1] (MTT) was 259 ± 8.4 µM; in series [2] (setting [15]) it was 57.3 ± 15 µM; in series [3] (MTT, 72 h) it was 43.7 to 148 µM; in series [4] (MTT), 148 ± 10.4 µM; in series [5] (PPC-1, MTT, 72 h), 43.7 ± 15 µM. Further, in series [3] (setting [14]), the viability at 100 µM was under 20%. In addition, the “selectivity for cancer cells over fibroblasts” value in [3] (from EC50 values, cancer cell lines vs HF) was 1.5–6 times. Further, the “viability of cells in spheroids, PPC-1” value in series [11] (setting [16]) is “reduced the viability”. For the same compound, the “spheroid growth / size, PPC-1” value in [11] (setting [17]) is “no statistically significant effect”. Besides, the “viability of cells in spheroids, U-87” value in [12] (setting [16]) is on record as “reduced the viability”. The “spheroid growth / size, U-87” value in series [12] (setting [17]) is reported as “reduced the growth”.
Consider `CCOc1ccc(S(=O)(=O)N(CC)CC)cc1-n1cc(-c2ccccc2)nc1SCC` [Compound 23, 4-Ethoxy-N,N-diethyl-3-(2-(ethylthio)-4-phenyl-1H-imidazol-1-yl)benzenesulfonamide], for which, in series [10], the “binding to CA isoenzymes (in words)” value was “lost its affinity; also recorded: abolished the ability”.
Regarding `COC(=O)CCNc1cc(S(N)(=O)=O)ccc1O` [Compound 25, Methyl 3-((2-hydroxy-5-sulfamoylphenyl)amino)propanoate], the “fold increase in affinity, CAII” value in series [13] is listed as about 40 ×.
On to `CC(=O)Nc1cc(S(=O)(=O)NC(C)=O)ccc1O` [Compound 27, N -((3-Acetamido-4-hydroxyphenyl)sulfonyl)acetamide], for which, in [10], the “binding to CA isoenzymes (in words)” value is recorded as “did not interact; also recorded: abolished the ability”.
`NS(=O)(=O)c1ccc(NC(=O)Nc2ccc(F)cc2)cc1` [Compound U-104, reference compound]: the EC50 in series [2] (MTT, 72 h) amounted to 240 ± 18 µM.

The EC50 is the concentration needed to bring the measured effect to its halfway point. One may read the viability as a per cent measure of how many cells are alive, often set against a control. Read a low viability as more harm to the cells.
